Test results published in patent publication US20150265584A1, “LEVUGLANDIN ADDUCTS HISTONE H4 IN A CYCLOOXYGENASE-2-DEPENDENT MANNER, ALTERING ITS INTERACTION WITH DNA” (VANDERBILT UNIVERSITY, priority 2014, published 2015).

Assays:
RAW264.7 cells = test: LG-lysyl adduct formation on histones in COX-2-stimulated, AA-treated RAW264.7 cells (LC/ESI/MS/MS); format: cell-based, mouse; settings: for LG adduct formation on histones (LG-lysyl lactam adduct): 500 μM scavenger pretreated 45 min, 20 μM AA 1 h, n=2
Method: (§1) To stimulate COX-2 expression, A549 or RAW264.7 cells were treated overnight with 5 ng/mL IL-1β (A549) or 10 μg/mL LPS and 10 U/mL IFNγ (RAW264.7) in serum-free medium. When indicated, cells were pretreated with indomethacin, aldehyde scavengers (glucosamine, 3-MoSA, PPM or EtSA), or vehicle (ethanol for indomethacin, H2O for scavengers) for 45 min, and then given 20 μM arachidonic acid (AA) or DMSO vehicle for 1 h before lysing.
Cultured cells were lysed in hypotonic buffer (10 mM Tris/10 mM NaCl/3 mM MgCl2) containing 1 mM pyridoxamine and 100 μM indomethacin to prevent the artifactual formation of LGE2 during the lytic process. After letting cells swell on ice, membranes were disrupted by addition of Triton X-100 (0.5% final concentration) and vortexing. Nuclei were isolated by centrifugation for 10 min at 1000×g, and the resulting pellet washed with PBS. Histones were extracted in 0.4 N H2SO4, precipitated with trichloracetic acid, and washed with acetone. […] Histones were resolubilized in dilute NaOH, and pH neutralized with HCl. Protein concentration was determined using the method of Bradford. For tissue, a portion of frozen liver was homogenized in buffer containing 40 mM sodium citrate, and 1% Triton X-100 with 3 mM Trolox and 100 μM indomethacin. The supernatant was separated from settled debris, and nuclei were pelleted at 500×g and washed. Nuclear pellets were frequently transferred to fresh tubes to avoid contamination by floating lipid debris; any remaining was removed with a cotton swab. Histones were extracted as above. All centrifugation steps were carried out at 4° C.
Histone samples were prepared for mass spectrometry by addition of ammonium bicarbonate to 5 mM final concentration before digesting to single amino acids by protease step-digestion as previously described. In the case of immunoblots, proteins were digested directly off the nitrocellulose through incubation of the nitrocellulose strip in 30 μg/mL Pronase in ammonium bicarbonate buffer, and later addition of aminopeptidase. All samples were centrifuged at 2000×g for 10 min. after final digestion to remove precipitate, spiked with 0.2 ng ^13C-lysyl-lactam internal standard, and purified on prepared tC18 cartridges (Waters Corp., Milford, Mass.). Samples on tC18 cartridges were washed with water, then 30% methanol, before being eluted in 80% methanol and concentrated by evaporation. Samples were evaluated by electrospray ionization (ESI) LC/MS/MS on a ThermoFisher TSQ Quantum triple quadrapole mass spectrometer in positive ion mode and quantitated by isotopic dilution as previously described, with the exception of a reduced flow rate of 0.1 mL/min.

A549 cells = test: LG-lysyl adduct formation on histones in COX-2-stimulated, AA-treated A549 cells (LC/ESI/MS/MS); format: cell-based, human
Method: as §1
Cultured cells were lysed in hypotonic buffer (10 mM Tris/10 mM NaCl/3 mM MgCl2) containing 1 mM pyridoxamine and 100 μM indomethacin to prevent the artifactual formation of LGE2 during the lytic process. After letting cells swell on ice, membranes were disrupted by addition of Triton X-100 (0.5% final concentration) and vortexing. […] Protein concentration was determined using the method of Bradford. […]
Histone samples were prepared for mass spectrometry by addition of ammonium bicarbonate to 5 mM final concentration before digesting to single amino acids by protease step-digestion as previously described. […] Samples were evaluated by electrospray ionization (ESI) LC/MS/MS on a ThermoFisher TSQ Quantum triple quadrapole mass spectrometer in positive ion mode and quantitated by isotopic dilution as previously described, with the exception of a reduced flow rate of 0.1 mL/min.

histone H4 = test: Salt extraction of A549 nuclei, histone H4 solubility (Western blot); format: cell-based, human; settings: A549 cells, 500 μM EtSA 45 min prior to 20 μM AA; 0.6-1.2 M NaCl
Method: 60-80% confluent A549 cells were stimulated and treated with AA±500 μM EtSA before scraping cells in lysis media for nuclear isolation as above. After addition of Tritox X-100 and vortexing, 1.5 mL of each sample was aliquoted into an eppendorf and centrifuged to separate nuclei. Pellets were washed with PBS and all buffer removed. Nuclear pellets were resuspended in extraction buffer containing 0.6M, 0.9M, 1.2M or 1.5M NaCl (with 10 mM Tris, pH 7.5, 3 mM MgCl2, 0.5% NP-40, and protease inhibitor cocktail) and incubated 10 min on ice. Following this extraction period, the nuclei were centrifuged at 16,000×g to obtain the soluble fraction. This was sonicated, denatured at 95° C., and analyzed by SDS-PAGE and Western blotting, using Ponceau stain to visualize proteins and confirm equal loading, and anti-H4 antibody (Abcam, Cambridge, Mass.).

COX-2 = test: PGE2 production in cell media as measure of COX-2 activity (GC/MS), A549 cells; format: cell-based, human
Method: as §1
A sample of cellular media was taken just prior to lysis and centrifuged to remove any cellular debris. For PGE2 analysis, samples were spiked with 2 ng of [^2H7] PGE2 as an internal standard. Prostaglandins were isolated and derivatized for analysis by GC/MS, operating in negative ion chemical ionization (NICI) mode and monitoring selected ions as previously described. For the […] internal standard, m/z=528. To account for the deuterium-protium exchange at the position C12 of [^2H7] PGE2, the summation of the signals obtained at m/z=530, m/z=531 and m/z=532 was performed.

Compound	LG adduct formation on histones (LG-lysyl lactam adduct) (RAW264.7 cells; RAW264.7 cells)	protecting histones from modification by levuglandins, comparison with other scavengers (RAW264.7 cells; in comparison with salicylamine, pyridoxamine and their other analogues)	LG-histone adduct formation (A549 cells; stimulated A549 cells, 30, 300 or 1000 μM EtSA, 20 μM AA 1 h)	histone H4 elution at lower salt concentrations (DNA-histone interaction) (histone H4)	PGE2 production (COX-2; highest concentration tested (1000 μM EtSA), 20 μM AA 1 h)	PGE2 production (COX-2; lower doses of EtSA (data not shown))	LG-histone adduct formation (RAW264.7 cells; RAW264.7 cells, 50 μM indomethacin preincubated 45 min, 20 μM AA)	LG-histone adduct formation (A549 cells; A549 cells, 50 μM indomethacin preincubated 45 min, 20 μM AA)
pentylpyridoxamine [PPM, reference compound]	partially inhibited histone adduct formation, but was much less potent than 5-ethylsalicylamine							
CCc1ccc(O)c(CN)c1 [EtSA, 5-ethylsalicylamine]	most effectively blocked adduct formation	most potent in protecting histones from modification by levuglandins	inhibited LG-histone adduct formation	reversed	without affecting PGE2 production	no effect on PGE2 production		
COc1ccc2c(c1)c(CC(=O)O)c(C)n2C(=O)c1ccc(Cl)cc1 [indomethacin, reference compound]							blocked	blocked
